In publication PMC8274517, “Diaryl azo derivatives as anti-diabetic and antimicrobial agents: synthesis, in vitro, kinetic and docking studies” (Journal of Enzyme Inhibition and Medicinal Chemistry, 2021):
Values after ≈ are worked out from the molar mass of the structure shown.

Tests used:
α-glucosidase = assay: In vitro α-glucosidase inhibition assay (pNPG substrate); assay type: biochemical, Saccharomyces Cerevisiae; conditions: for IC50: means ± SEM of triplicate
Protocol: The α-glucosidase inhibition assay was performed as described previously. In summary, the stock solution of the enzyme from Saccharomyces Cerevisiae (0.2 U/mL) was prepared in 0.05 M sodium phosphate buffer pH 6.8. […] After incubation, 10 µL of the substrate, p-nitrophenyl α-D-glucopyranoside (pNPG, 5 mM solution in 0.05 M phosphate buffer) was added to the aboveprepared mixture and incubated again under the same experimental conditions. The reaction was stopped with the addition of 0.1 M Na2CO3 and OD405 was taken by a 96-well ELISA reader. The experiment was performed in triplicate.

E. coli = assay: Antibacterial activity, minimum inhibitory concentration; assay type: cell-based; set-up: key: R: resistant; S: sensitive
Protocol: (§1) The prepared azo derivatives were screened for their antibacterial activity against six bacterial strains obtained from hospital isolates i.e. gram positive (S. aureus, S. aureus (DR)) and gram-negative (E. coli, P. aeruginosa, P. aeruginosa (DR), P. vulgaris). All the strains were confirmed by biochemical identification and drug susceptibility methods. The antibacterial evaluation was done by agar disc diffusion method[39]^,[40] and MIC was determined. In summary, a 48-h old inoculum having ∼0.48 OD600, of the above-mentioned bacterial strains was spread on the solidified trypticase soy agar media and Whatman no. 1 filter paper discs (5 mm in diameter) soaked with the title compounds (10 µL/disc of 10 mg/mL) were placed on the plates. Ampicillin and moxifloxacin were used as positive controls and DMSO as negative control respectively.

P. vulgaris = assay: as above; assay type: cell-based; set-up: key: R: resistant; S: sensitive
Protocol: as §1

P. aeruginosa (DS) [1] = assay: as above; assay type: cell-based; set-up: key: R: resistant; S: sensitive
Protocol: as §1

P. aeruginosa (DR) [2] = assay: as above; assay type: cell-based; set-up: key: R: resistant; S: sensitive
Protocol: as §1

S. aureus (DS) [3] = assay: as above; assay type: cell-based; set-up: key: R: resistant; S: sensitive
Protocol: as §1

S. aureus (DR) [4] = assay: as above; assay type: cell-based; set-up: key: R: resistant; S: sensitive
Protocol: as §1

P. aeruginosa (DS) [5] = assay: Antibiofilm assay (crystal violet); assay type: cell-based; conditions: 0.5 mg/mL
Protocol: (§2) The antibiofilm activity of the synthesised azo derivatives was assessed by microtitre plate-based crystal violet method[44] against respective bacterial strains i.e. gram-positive (S. aureus, S. aureus (DR)) and gram-negative (P. aeruginosa, P. aeruginosa (DR)). In brief, 10 µL bacterial suspension, 100 µL trypticase soy broth and 10 µL (10 mg/mL) of test compounds were added in the wells in duplicates and incubated at 37 °C overnight. Ampicillin and moxifloxacin were used as positive controls. After the aspiration of planktonic cells, the biofilm was fixed with 99% methanol. The wells were then washed with 0.1 M sterile PBS (pH = 6.9) thrice and air-dried. Then, 200 µL of crystal violet solution (2%) was added to all wells. After 15 min, the excess of the crystal violet dye was removed and the wells were washed again with PBS. Then, the cell-bound crystal violet was dissolved in 33% acetic acid. The biofilm growth was quantified in terms of OD575 nm using an ELISA plate reader and biofilm hydrolysis was calculated by % inhibition formula.

P. aeruginosa (DR) [6] = assay: Antibiofilm assay (crystal violet); assay type: cell-based; conditions: 0.5 mg/mL; for inhibition at 500 µg/mL: Pseudomonas aeruginosa, read-out: biofilm inhibition (anti-biofilm potency)
Protocol: as §2

S. aureus (DS) [7] = assay: Antibiofilm assay (crystal violet); assay type: cell-based; conditions: 0.5 mg/mL
Protocol: as §2

S. aureus (DR) [8] = assay: Antibiofilm assay (crystal violet); assay type: cell-based; conditions: 0.5 mg/mL
Protocol: as §2

Oc1ccc(N=Nc2cccnc2Cl)c(O)c1 [TR-7, 4-((2-chloropyridin-3-yl)diazenyl)benzene-1,3-diol]
melting point: 187 to 189 °C | % Inhibition (α-glucosidase; 15.62 µg/mL): 34% | % Inhibition (α-glucosidase; 31.2 µg/mL): 52% | % Inhibition (α-glucosidase; 125 µg/mL): 77% | % Inhibition (α-glucosidase; 250 µg/mL): 87% | IC50 (α-glucosidase): 29.7 ± 2.8 µg/mL (≈ 119 µM) | Minimum inhibitory concentration: sensitive/resistant (E. coli; 125 µg/200 µL): R | Minimum inhibitory concentration: sensitive/resistant (E. coli; 250 µg/200 µL): R | Minimum inhibitory concentration: sensitive/resistant (P. vulgaris; 125 µg/200 µL): R | Minimum inhibitory concentration: sensitive/resistant (P. vulgaris; 250 µg/200 µL): R | Minimum inhibitory concentration: sensitive/resistant (P. aeruginosa (DS) [1]; 125 µg/200 µL): R | Minimum inhibitory concentration: sensitive/resistant (P. aeruginosa (DS) [1]; 250 µg/200 µL): R | Minimum inhibitory concentration: sensitive/resistant (P. aeruginosa (DR) [2]; 125 µg/200 µL): S | Minimum inhibitory concentration: sensitive/resistant (P. aeruginosa (DR) [2]; 250 µg/200 µL): S | Minimum inhibitory concentration: sensitive/resistant (S. aureus (DS) [3]; 125 µg/200 µL): R | Minimum inhibitory concentration: sensitive/resistant (S. aureus (DS) [3]; 250 µg/200 µL): R | Minimum inhibitory concentration: sensitive/resistant (S. aureus (DR) [4]; 125 µg/200 µL): R | Minimum inhibitory concentration: sensitive/resistant (S. aureus (DR) [4]; 250 µg/200 µL): R | biofilm inhibition (P. aeruginosa (DS) [5]): not found active | inhibition at 500 µg/mL (P. aeruginosa (DR) [6]): 55%

Oc1ccc(N=Nc2cccnc2Cl)c2ccccc12 [TR-8, 4-((2-chloropyridin-3-yl)diazenyl)naphthalen-1-ol]
melting point: 170 to 175 °C | % Inhibition (α-glucosidase; 15.62 µg/mL): 29% | % Inhibition (α-glucosidase; 31.2 µg/mL): 45% | % Inhibition (α-glucosidase; 125 µg/mL): 75% | % Inhibition (α-glucosidase; 250 µg/mL): 98% | IC50 (α-glucosidase): 36.7 ± 3.1 µg/mL (≈ 129 µM) | Minimum inhibitory concentration: sensitive/resistant (E. coli; 125 µg/200 µL): R | Minimum inhibitory concentration: sensitive/resistant (E. coli; 250 µg/200 µL): R | Minimum inhibitory concentration: sensitive/resistant (P. vulgaris; 125 µg/200 µL): R | Minimum inhibitory concentration: sensitive/resistant (P. vulgaris; 250 µg/200 µL): R | Minimum inhibitory concentration: sensitive/resistant (P. aeruginosa (DS) [1]; 125 µg/200 µL): R | Minimum inhibitory concentration: sensitive/resistant (P. aeruginosa (DS) [1]; 250 µg/200 µL): S | Minimum inhibitory concentration: sensitive/resistant (P. aeruginosa (DR) [2]; 125 µg/200 µL): R | Minimum inhibitory concentration: sensitive/resistant (P. aeruginosa (DR) [2]; 250 µg/200 µL): R | Minimum inhibitory concentration: sensitive/resistant (S. aureus (DS) [3]; 125 µg/200 µL): S | Minimum inhibitory concentration: sensitive/resistant (S. aureus (DS) [3]; 250 µg/200 µL): S | Minimum inhibitory concentration: sensitive/resistant (S. aureus (DR) [4]; 125 µg/200 µL): R | Minimum inhibitory concentration: sensitive/resistant (S. aureus (DR) [4]; 250 µg/200 µL): R | inhibition at 500 µg/mL (P. aeruginosa (DR) [6]): 80% | biofilm inhibition (S. aureus (DS) [7]): greater than 70% | biofilm hydrolysis efficiency (S. aureus (DR) [8]): drastically decreased

(E)-1-(p-tolyldiazenyl)naphthalen-2-ol [TR-5]
% Inhibition (α-glucosidase; 15.62 µg/mL): 14% | % Inhibition (α-glucosidase; 31.2 µg/mL): 22% | % Inhibition (α-glucosidase; 125 µg/mL): 49% | % Inhibition (α-glucosidase; 250 µg/mL): 56% | IC50 (α-glucosidase): 153.4 ± 11.5 µg/mL | Minimum inhibitory concentration: sensitive/resistant (E. coli; 125 µg/200 µL): S | Minimum inhibitory concentration: sensitive/resistant (E. coli; 250 µg/200 µL): S | Minimum inhibitory concentration: sensitive/resistant (P. vulgaris; 125 µg/200 µL): R | Minimum inhibitory concentration: sensitive/resistant (P. vulgaris; 250 µg/200 µL): R | Minimum inhibitory concentration: sensitive/resistant (P. aeruginosa (DS) [1]; 125 µg/200 µL): R | Minimum inhibitory concentration: sensitive/resistant (P. aeruginosa (DS) [1]; 250 µg/200 µL): S | Minimum inhibitory concentration: sensitive/resistant (P. aeruginosa (DR) [2]; 125 µg/200 µL): S | Minimum inhibitory concentration: sensitive/resistant (P. aeruginosa (DR) [2]; 250 µg/200 µL): S | Minimum inhibitory concentration: sensitive/resistant (S. aureus (DS) [3]; 125 µg/200 µL): R | Minimum inhibitory concentration: sensitive/resistant (S. aureus (DS) [3]; 250 µg/200 µL): R | Minimum inhibitory concentration: sensitive/resistant (S. aureus (DR) [4]; 125 µg/200 µL): S | Minimum inhibitory concentration: sensitive/resistant (S. aureus (DR) [4]; 250 µg/200 µL): S | biofilm inhibition (anti-biofilm potency) (P. aeruginosa (DR) [6]): 80%

penicillin [reference compound]
biofilm inhibition (P. aeruginosa (DS) [5]): 60% | biofilm inhibition (S. aureus (DS) [7]): 65%
